We go through 34 molecules from ChEMBL document CHEMBL6096701 (J Med Chem, 2025).

Active and inactive are the calls of the source. The rule behind the calls is not given here. Where only a bound is given, the exact number is not on record here.

A short description of series [1]: Upregulation of IL-10 level in human CD4+ T cell by flow cytometry analysis. It counts as functional, cell-based.
The target of series [2] is Cyclin-dependent kinase 8/19 (Homo sapiens, UniProt P49336+Q9BWU1). Briefly: Binding affinity to CDK8/CDK19 complex in human CD4+ T cell assessed as upregulation of IL-10 level. It is filed as cell-based.
Series [3] concerns Mus musculus. In words: Anti-inflammatory activity in LPS-induced male CD-1 mouse acute inflammatory model assessed as peak IL-10 level at 1 mg/kg, sc preincubated for 15 mins followed by LPS stimulation and measured after 2 hrs relative to control. It is filed as functional. The settings on record: time 135 min, 2.25 h.
Series [4] in a line: Upregulation of IL-10 level in human whole blood cell preincubated for 30 mins followed by LPS stimulation and measured after 23 hrs by MSD analysis. It counts as functional, cell-based.
A short description of series [5]: Upregulation of TNF-alpha level in human CD4+ T cell by flow cytometry analysis. It counts as functional, cell-based. Background: Flow cytometry measures light scatter and fluorescence of single cells or particles in a stream.
Series [6] in a line: Upregulation of IL-10 level in mouse whole blood cell preincubated for 30 mins followed by LPS stimulation and measured after 23 hrs by MSD analysis. It is filed as functional, cell-based.
Series [7] relates to Mus musculus. In words: Anti-inflammatory activity in LPS-induced male CD-1 mouse acute inflammatory model assessed as peak IL-10 level at 10 mg/kg, sc preincubated for 15 mins followed by LPS stimulation and measured after 2 hrs relative to control. It is filed as functional. The settings on record: time 135 min, 2.25 h.
Series [8] concerns Mus musculus. Briefly: Anti-inflammatory activity in LPS-induced male CD-1 mouse acute inflammatory model assessed as peak IL-10 level at 50 mg/kg, sc preincubated for 15 mins followed by LPS stimulation and measured after 2 hrs relative to control. It is filed as functional. The settings on record: time 135 min, 2.25 h.
Series [9] deals with Mus musculus. In words: Anti-inflammatory activity in LPS-induced male CD-1 mouse acute inflammatory model assessed as effect on IL-10 level at 50 mg/kg, sc preincubated for 15 mins followed by LPS stimulation and measured after 3.5 hrs. It counts as functional, organism-based. The settings on record: time 225.0 min.
In series [10] the target is Cyclin-dependent kinase 6 (Homo sapiens) (UniProt Q00534). Briefly: Binding affinity to CDK6 (unknown origin).
Series [11] concerns the target Serine/threonine-protein kinase SIK2 (Homo sapiens) (UniProt Q9H0K1). Briefly: Binding affinity to SIK2 (unknown origin) by FRET biochemical assay.
Series [12] concerns the target Serine/threonine-protein kinase SIK1 (Homo sapiens) (UniProt P57059). Briefly: Binding affinity to SIK1 (unknown origin) by FRET biochemical assay.
Series [13] has as its target Serine/threonine-protein kinase SIK3 (Homo sapiens) (UniProt Q9Y2K2). Briefly: Binding affinity to SIK3 (unknown origin) by FRET biochemical assay.
For series [14], the target named is Glycogen synthase kinase-3 beta (Homo sapiens) (UniProt P49841). In words: Binding affinity to GSK3beta (unknown origin).
Series [15] addresses Cyclin-dependent kinase 7 (Homo sapiens) (UniProt P50613). In words: Binding affinity to CDK7 (unknown origin).
Series [16] addresses Glycogen synthase kinase-3 alpha (Homo sapiens) (UniProt P49840). Briefly: Binding affinity to GSK3alpha (unknown origin).
The target of series [17] is Cyclin-dependent kinase 2 (Homo sapiens) (UniProt P24941). Briefly: Binding affinity to CDK2 (unknown origin).
Series [18] deals with Cyclin-dependent kinase 9 (Homo sapiens) (UniProt P50750). In words: Binding affinity to CDK9 (unknown origin).
The target of series [19] is Cyclin-dependent kinase 5 (Homo sapiens) (UniProt Q00535). In words: Binding affinity to CDK5 (unknown origin).
For series [20], the target named is Cyclin-dependent kinase 10 (Homo sapiens) (UniProt Q15131). In words: Binding affinity to CDK10 (unknown origin).
Series [21] is described as follows: Metabolic stability in human hepatocytes assessed as intrinsic clearance by LC-MS/MS analysis. It is filed as ADME, cell-based, Hepatocyte. The settings on record: read-out: CLH.

Sequence of Glycogen synthase kinase-3 beta (Homo sapiens) (P49841 whole entry, looked up): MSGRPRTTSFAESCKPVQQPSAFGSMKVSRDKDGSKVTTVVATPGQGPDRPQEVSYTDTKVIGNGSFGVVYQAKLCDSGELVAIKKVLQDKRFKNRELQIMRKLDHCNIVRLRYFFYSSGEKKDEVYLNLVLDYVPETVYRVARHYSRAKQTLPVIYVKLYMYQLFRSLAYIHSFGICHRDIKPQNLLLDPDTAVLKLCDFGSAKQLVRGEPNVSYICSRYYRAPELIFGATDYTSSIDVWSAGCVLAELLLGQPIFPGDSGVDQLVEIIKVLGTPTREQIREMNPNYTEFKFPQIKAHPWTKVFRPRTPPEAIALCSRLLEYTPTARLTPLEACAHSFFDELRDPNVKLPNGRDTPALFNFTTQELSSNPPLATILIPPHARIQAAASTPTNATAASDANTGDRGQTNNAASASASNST
Sequence of Serine/threonine-protein kinase SIK1 (Homo sapiens) (P57059 whole entry): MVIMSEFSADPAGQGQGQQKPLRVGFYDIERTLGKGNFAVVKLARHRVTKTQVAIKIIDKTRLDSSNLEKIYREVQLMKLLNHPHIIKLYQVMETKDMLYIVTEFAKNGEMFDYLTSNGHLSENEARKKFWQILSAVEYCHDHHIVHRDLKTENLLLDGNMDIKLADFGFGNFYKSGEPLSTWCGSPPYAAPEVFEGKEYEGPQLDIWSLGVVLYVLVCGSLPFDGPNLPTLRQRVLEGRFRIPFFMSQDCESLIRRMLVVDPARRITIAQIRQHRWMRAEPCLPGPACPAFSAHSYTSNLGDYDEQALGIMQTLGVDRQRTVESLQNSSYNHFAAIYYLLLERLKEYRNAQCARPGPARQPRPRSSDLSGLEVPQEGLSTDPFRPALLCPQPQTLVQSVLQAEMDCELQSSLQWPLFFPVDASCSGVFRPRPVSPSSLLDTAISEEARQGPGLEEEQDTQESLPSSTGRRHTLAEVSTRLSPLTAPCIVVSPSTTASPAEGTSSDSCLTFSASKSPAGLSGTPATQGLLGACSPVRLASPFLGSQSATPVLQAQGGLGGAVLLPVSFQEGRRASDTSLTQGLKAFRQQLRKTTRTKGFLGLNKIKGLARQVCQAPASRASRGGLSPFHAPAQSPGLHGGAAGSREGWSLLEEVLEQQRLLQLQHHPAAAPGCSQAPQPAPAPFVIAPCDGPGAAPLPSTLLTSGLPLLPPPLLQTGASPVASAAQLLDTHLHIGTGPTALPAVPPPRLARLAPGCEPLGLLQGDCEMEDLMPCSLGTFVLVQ
Sequence of Serine/threonine-protein kinase SIK2 (Homo sapiens) (Q9H0K1 whole entry, looked up): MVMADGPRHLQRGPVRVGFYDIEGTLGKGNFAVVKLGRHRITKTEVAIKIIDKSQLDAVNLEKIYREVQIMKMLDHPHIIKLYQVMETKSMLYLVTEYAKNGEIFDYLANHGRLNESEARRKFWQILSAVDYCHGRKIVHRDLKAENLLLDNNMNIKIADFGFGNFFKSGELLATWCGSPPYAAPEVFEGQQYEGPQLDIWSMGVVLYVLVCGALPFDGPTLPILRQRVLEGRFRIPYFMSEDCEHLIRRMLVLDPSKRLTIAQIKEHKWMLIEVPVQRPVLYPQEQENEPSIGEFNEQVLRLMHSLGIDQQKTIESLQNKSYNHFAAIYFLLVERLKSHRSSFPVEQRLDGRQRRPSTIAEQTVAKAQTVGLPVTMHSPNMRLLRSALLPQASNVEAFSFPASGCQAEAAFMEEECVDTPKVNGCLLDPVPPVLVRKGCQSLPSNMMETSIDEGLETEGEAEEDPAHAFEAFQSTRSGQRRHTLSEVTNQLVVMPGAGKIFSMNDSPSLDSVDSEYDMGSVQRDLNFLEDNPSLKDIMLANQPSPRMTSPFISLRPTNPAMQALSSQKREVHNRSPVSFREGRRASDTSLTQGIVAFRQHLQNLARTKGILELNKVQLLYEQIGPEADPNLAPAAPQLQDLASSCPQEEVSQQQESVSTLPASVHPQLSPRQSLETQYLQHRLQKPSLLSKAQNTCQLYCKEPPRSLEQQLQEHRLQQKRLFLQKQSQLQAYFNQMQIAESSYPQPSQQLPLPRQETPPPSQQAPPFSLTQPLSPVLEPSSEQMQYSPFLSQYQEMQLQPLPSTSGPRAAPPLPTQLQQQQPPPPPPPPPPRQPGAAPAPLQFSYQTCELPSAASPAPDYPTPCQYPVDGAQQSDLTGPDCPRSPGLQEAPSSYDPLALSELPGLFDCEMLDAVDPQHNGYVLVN
Sequence of Cyclin-dependent kinase 6 (Homo sapiens) (Q00534 whole entry): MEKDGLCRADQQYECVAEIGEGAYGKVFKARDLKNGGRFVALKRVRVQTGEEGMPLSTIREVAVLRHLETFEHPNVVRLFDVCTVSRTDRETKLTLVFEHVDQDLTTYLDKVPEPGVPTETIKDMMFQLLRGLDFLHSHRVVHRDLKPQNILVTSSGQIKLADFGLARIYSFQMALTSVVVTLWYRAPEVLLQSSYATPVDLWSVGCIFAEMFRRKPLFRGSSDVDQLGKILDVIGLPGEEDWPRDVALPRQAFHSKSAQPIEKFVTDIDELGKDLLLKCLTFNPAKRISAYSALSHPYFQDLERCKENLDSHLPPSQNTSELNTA
Sequence of Serine/threonine-protein kinase SIK3 (Homo sapiens) (Q9Y2K2 whole entry, looked up): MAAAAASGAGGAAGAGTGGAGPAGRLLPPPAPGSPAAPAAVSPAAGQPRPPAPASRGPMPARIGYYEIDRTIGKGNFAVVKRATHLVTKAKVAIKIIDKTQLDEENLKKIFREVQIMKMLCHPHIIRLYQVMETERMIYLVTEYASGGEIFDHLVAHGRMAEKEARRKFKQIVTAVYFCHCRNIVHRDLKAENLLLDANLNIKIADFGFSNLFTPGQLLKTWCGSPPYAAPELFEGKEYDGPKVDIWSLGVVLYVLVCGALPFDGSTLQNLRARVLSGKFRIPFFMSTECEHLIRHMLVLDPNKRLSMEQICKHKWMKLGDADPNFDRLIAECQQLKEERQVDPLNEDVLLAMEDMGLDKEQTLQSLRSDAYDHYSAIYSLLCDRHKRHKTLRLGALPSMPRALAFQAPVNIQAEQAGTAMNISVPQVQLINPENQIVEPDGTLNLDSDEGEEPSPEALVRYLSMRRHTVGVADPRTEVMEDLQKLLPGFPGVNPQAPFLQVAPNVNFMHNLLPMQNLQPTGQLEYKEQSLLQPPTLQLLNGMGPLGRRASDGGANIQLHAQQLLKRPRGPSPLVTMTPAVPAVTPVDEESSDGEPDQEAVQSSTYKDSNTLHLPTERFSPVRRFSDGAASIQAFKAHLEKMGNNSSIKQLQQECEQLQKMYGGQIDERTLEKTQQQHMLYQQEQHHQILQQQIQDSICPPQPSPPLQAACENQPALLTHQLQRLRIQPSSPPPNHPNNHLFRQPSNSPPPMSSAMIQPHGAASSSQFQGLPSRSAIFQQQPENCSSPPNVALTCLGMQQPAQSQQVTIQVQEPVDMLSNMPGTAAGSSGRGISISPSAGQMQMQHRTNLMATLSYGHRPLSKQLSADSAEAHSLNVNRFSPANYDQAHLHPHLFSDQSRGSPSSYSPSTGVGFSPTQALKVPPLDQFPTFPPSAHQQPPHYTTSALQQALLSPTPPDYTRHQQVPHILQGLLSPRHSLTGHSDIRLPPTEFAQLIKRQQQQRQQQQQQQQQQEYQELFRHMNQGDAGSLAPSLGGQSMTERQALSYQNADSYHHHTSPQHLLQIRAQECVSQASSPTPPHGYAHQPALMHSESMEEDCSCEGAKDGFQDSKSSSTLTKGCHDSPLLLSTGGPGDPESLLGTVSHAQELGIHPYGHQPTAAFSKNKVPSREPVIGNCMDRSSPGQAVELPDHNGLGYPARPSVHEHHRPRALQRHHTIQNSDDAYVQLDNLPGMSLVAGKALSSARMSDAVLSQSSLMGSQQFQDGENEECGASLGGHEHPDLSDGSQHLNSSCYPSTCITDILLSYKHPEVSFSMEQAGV
Sequence of Cyclin-dependent kinase 7 (Homo sapiens) (P50613 whole entry): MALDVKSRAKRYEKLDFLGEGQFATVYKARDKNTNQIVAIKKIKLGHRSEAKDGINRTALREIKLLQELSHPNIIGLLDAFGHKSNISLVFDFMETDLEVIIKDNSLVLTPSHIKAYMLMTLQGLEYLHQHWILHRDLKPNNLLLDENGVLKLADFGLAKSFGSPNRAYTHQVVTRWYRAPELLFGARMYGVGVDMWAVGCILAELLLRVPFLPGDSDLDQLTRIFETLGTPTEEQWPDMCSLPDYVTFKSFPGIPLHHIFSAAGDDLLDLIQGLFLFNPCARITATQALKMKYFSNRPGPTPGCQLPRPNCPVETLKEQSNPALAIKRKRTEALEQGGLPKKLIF
Sequence of Glycogen synthase kinase-3 alpha (Homo sapiens) (P49840 2-483 limits assumed): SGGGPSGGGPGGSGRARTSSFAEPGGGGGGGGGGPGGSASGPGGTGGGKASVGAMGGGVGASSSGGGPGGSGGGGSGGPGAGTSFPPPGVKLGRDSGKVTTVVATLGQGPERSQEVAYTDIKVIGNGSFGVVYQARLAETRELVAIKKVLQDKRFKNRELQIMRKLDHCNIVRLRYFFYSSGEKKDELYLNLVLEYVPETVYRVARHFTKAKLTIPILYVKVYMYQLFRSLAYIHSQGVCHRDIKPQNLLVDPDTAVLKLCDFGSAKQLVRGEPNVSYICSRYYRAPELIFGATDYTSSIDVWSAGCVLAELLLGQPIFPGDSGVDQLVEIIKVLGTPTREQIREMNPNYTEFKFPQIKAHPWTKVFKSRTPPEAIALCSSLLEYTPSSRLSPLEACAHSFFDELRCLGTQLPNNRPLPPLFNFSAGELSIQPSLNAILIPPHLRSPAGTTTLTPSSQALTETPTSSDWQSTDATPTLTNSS
Sequence of Cyclin-dependent kinase 9 (Homo sapiens) (P50750 whole entry): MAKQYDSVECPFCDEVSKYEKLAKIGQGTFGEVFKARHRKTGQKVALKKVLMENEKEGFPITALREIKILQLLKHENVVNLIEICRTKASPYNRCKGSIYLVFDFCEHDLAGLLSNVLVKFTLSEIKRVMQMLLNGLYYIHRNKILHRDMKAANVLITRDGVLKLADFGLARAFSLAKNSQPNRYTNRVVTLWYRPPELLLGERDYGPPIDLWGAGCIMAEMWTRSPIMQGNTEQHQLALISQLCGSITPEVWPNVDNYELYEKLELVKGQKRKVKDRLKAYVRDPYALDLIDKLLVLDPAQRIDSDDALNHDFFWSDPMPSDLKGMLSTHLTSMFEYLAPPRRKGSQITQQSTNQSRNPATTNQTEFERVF

`N#Cc1cc(C(=O)N2C[C@@H](c3ccnc(N4CCCC4)n3)CC(F)(F)C2)c[nH]1` gave an EC50 in series [1] of 263 nM.

For the molecule `CO[C@H]1C[C@@H](c2ccnc(N3CC[C@@H](F)C3)n2)CN(C(=O)c2c[nH]c(C#N)c2)C1`, in [1], the EC50 was 2400 nM.

`N#Cc1cc(C(=O)N2CCCC(c3ccnc(-n4cccn4)n3)C2)c[nH]1` (racemic): the EC50 in [1] came to 9120 nM.

In the case of `N#Cc1cc(C(=O)N2CCOC(c3ccnc(N4CCCC4)n3)C2)co1` (racemic), in series [1], the EC50 was above 25000 nM.

On to `N#Cc1ncc(C(=O)N2CCOC(c3ccnc(N4CCCC4)n3)C2)s1` (racemic), for which the EC50 in series [1] was above 25000 nM.

`NC(=O)c1c[nH]c(C(=O)N2CCOC(c3ccnc(N4CCCC4)n3)C2)c1` (racemic) showed an EC50 in [1] above 25000 nM.

On to `N#Cc1cc(C(=O)N2CCOC(c3ccnc(N4CCCC4)n3)C2)n[nH]1` (racemic), for which the EC50 in [1] is above 25000 nM.

In series [1], `Cc1cc(C2CCCN(C(=O)c3c[nH]c(C#N)c3)C2)nc(N2CCCC2)n1` (racemic) returned an EC50 above 25000 nM.

On to `CCN(CC)c1nccc(C2CCCN(C(=O)c3c[nH]c(C#N)c3)C2)n1` (racemic), for which the EC50 in series [1] was above 25000 nM.

As for `N#Cc1cc(C(=O)N2CCC[C@H](c3ccnc(N4CCC(F)(F)C4)n3)C2)c[nH]1`, the EC50 in series [1] stood at 955 nM.

In turn, `C[C@@H]1CCN(C(=O)c2c[nH]c(C#N)c2)C[C@H]1c1ccnc(N2CCCC2)n1` yielded an EC50 in [1] of 437 nM.

Molecule `N#Cc1cc(C(=O)N2CCCC(c3ccnc(N4CCCCC4)n3)C2)c[nH]1` (racemic) returned an EC50 in [1] of 2000 nM.

In the case of `N#Cc1cc(C(=O)N2CCC[C@@H](c3ccnc(N4CCCC4)n3)C2)c[nH]1`, the figures for the EC50 in series [1] and in [2] were 275 nM and 6300 nM, respectively.

Turning to `CC(C)COc1nccc(C2CCCN(C(=O)c3c[nH]c(C#N)c3)C2)n1` (racemic), the EC50 in series [1] is above 25000 nM.

In series [1], `N#Cc1cc(C(=O)N2CCC[C@H](c3ccnc(N4CC[C@H](F)C4)n3)C2)c[nH]1` registered an EC50 of 955 nM.

`C[C@H]1CCCN1c1nccc([C@H]2CCCN(C(=O)c3c[nH]c(C#N)c3)C2)n1` had an EC50 in series [1] of 339 nM.

Turning to `CO[C@@H]1C[C@H](c2ccnc(N3CC[C@@H](F)C3)n2)CN(C(=O)c2c[nH]c(C#N)c2)C1`, the results for the Activity in series [3], in series [7] and in series [8] were 150%, 176% and 500%, respectively. The EC50 is 50 nM in series [4], above 25000 nM in series [5], 63 nM in series [6] and 46 nM in series [1]. In addition, the result in series [9] was Active.

`N#Cc1cc(C(=O)N2CCO[C@H](c3ccnc(N4CCCC4)n3)C2)c[nH]1` came in with an EC50 in series [1] of 1050 nM.

`N#Cc1c[nH]c(C(=O)N2CCOC(c3ccnc(N4CCCC4)n3)C2)c1` (racemic): the result in series [10], in [11], in [12], in series [13], in [14] and in series [15] was inactive. In addition, the result in series [16], in series [17], in series [18], in series [19] and in series [20] was inactive. In series [1], the EC50 came to 275 nM.

In the case of `CCc1nccc(C2CCCN(C(=O)c3c[nH]c(C#N)c3)C2)n1` (racemic), the EC50 in [1] was above 25000 nM.

On to `Cc1[nH]c(C#N)cc1C(=O)N1CCOC(c2ccnc(N3CCCC3)n2)C1` (racemic), for which the EC50 in series [1] worked out at 490 nM.

On to `N#Cc1c[nH]c(C(=O)N2CCO[C@H](c3ccnc(N4CCCC4)n3)C2)c1`, for which the result in series [10], in series [11], in [12], in series [13], in series [14] and in series [15] was inactive. Further, the result in series [16], in series [17], in series [18], in series [19] and in series [20] was inactive. In [1], this molecule yielded an EC50 of 5890 nM.

`N#Cc1coc(C(=O)N2CCOC(c3ccnc(N4CCCC4)n3)C2)c1` (racemic): the EC50 in series [1] is above 25000 nM.

As for `Cn1cc(C(=O)N2CCOC(c3ccnc(N4CCCC4)n3)C2)cc1C#N` (racemic), in series [1], the EC50 is above 25000 nM.

With `N#Cc1cc(C(=O)N2CCC[C@H](c3ccnc(N4CCCC4)n3)C2)c[nH]1`, the EC50 in [1] and in series [2] was 275 nM each time.

For the molecule `N#Cc1cc(C(=O)N2CCCC(F)(c3ccnc(N4CCCC4)n3)C2)c[nH]1` (racemic), in series [1], it took 676 nM to reach a half-maximal effect (EC50).

As to `N#Cc1cc(C(=O)N2CCCC(c3ncnc(N4CCCC4)n3)C2)c[nH]1` (racemic), the EC50 in series [1] is above 25000 nM.

Molecule `N#Cc1ccc(C(=O)N2CCOC(c3ccnc(N4CCCC4)n3)C2)[nH]1` (racemic) yielded an EC50 in series [1] above 25000 nM.

In [1], `C[C@@H]1CC[C@H](c2ccnc(N3CCCC3)n2)CN1C(=O)c1c[nH]c(C#N)c1` showed an EC50 of 33 nM.

Molecule `N#Cc1cc(C(=O)N2CCCC(c3cc(N4CCCC4)ncn3)C2)c[nH]1` (racemic) gave an EC50 in series [1] above 25000 nM.

Turning to `CO[C@@H]1C[C@H](c2ccnc(N3CCCC3)n2)CN(C(=O)c2c[nH]c(C#N)c2)C1`, the EC50 in [1] was 102 nM.

`C[C@@H]1C[C@H](c2ccnc(N3CCCC3)n2)CN(C(=O)c2c[nH]c(C#N)c2)C1`: the CLint scaled in [21] amounted to 90 mL/min/kg. In series [1], a half-maximal response (EC50) required 251 nM.

In series [1], `N#Cc1cc(C(=O)N2CCC[C@H](c3ccnc(N4CC[C@@H](F)C4)n3)C2)c[nH]1` had an EC50 of 178 nM.

In series [1], `Cc1[nH]c(C#N)cc1C(=O)N1CCCC(c2ccnc(N3CCCC3)n2)C1` (racemic) showed an EC50 of 355 nM.

By EC50 is commonly meant the concentration at which the effect is half-maximal.
